Active and inactive are the calls of the source. The rule behind the calls is not given here.
Tests used:
HT-1080 [1] = assay: Antiproliferative activity against human HT1080 cells at 3 uM after 48 hrs by calcein-AM assay; type: functional; settings: HT-1080, 48 h
HT-1080 [2] = assay: Antiproliferative activity against human HT1080 cells at 30 uM after 48 hrs by MTT assay; type: functional; settings: HT-1080, 48 h
U-937 [3] = assay: Antiproliferative activity against human U937 cells after 48 hrs by WST-8 assay; type: functional, cell-based; settings: U-937, 48 h
U-937 [4] = assay: Antiproliferative activity against human U937 cells after 72 hrs by WST-8 assay; type: functional, cell-based; settings: U-937, 72 h
HT-1080 [5] = assay: Inhibition of invasion of human HT1080 cells at 10 uM after 24 hrs; type: functional; settings: HT-1080, 24 h
HT-1080 [6] = assay: Inhibition of invasion of human HT1080 cells at 30 uM after 24 hrs; type: functional; settings: HT-1080, 24 h
HT-1080 [7] = assay: Antiproliferative activity against human HT1080 cells at 30 uM after 72 hrs by calcein-AM assay; type: functional; settings: HT-1080, 72 h
HT-1080 [8] = assay: Antiproliferative activity against human HT1080 cells at 3 uM after 24 hrs by MTT assay; type: functional; settings: HT-1080, 24 h
HL-60 [9] = assay: […] human HL60 cells assessed NBT positive cells at 10 uM after 72 hrs by NBT reduction test; type: functional
HT-1080 [10] = assay: Antiproliferative activity against human HT1080 cells at 10 uM after 72 hrs by calcein-AM assay; type: functional; settings: HT-1080, 72 h
HT-1080 [11] = assay: Antiproliferative activity against human HT1080 cells at 10 uM after 24 hrs by MTT assay; type: functional; settings: HT-1080, 24 h
HT-1080 [12] = assay: Antiproliferative activity against human HT1080 cells at 30 uM after 24 hrs by MTT assay; type: functional; settings: HT-1080, 24 h
HT-1080 [13] = assay: Antiproliferative activity against human HT1080 cells at 3 uM after 24 hrs by calcein-AM assay; type: functional; settings: HT-1080, 24 h
U-937 [14] = assay: Antiproliferative activity against human U937 cells after 24 hrs by WST-8 assay; type: functional, cell-based; settings: U-937, 24 h
HT-1080 [15] = assay: Antiproliferative activity against human HT1080 cells at 10 uM after 72 hrs by MTT assay; type: functional; settings: HT-1080, 72 h
HT-1080 [16] = assay: Antiproliferative activity against human HT1080 cells at 10 uM after 48 hrs by MTT assay; type: functional; settings: HT-1080, 48 h
HL-60 [17] = assay: Induction of human HL60 cells differentiation assessed as number of cells at 20 uM after 72 hrs by NBT reduction test; type: functional
HT-1080 [18] = assay: Antiproliferative activity against human HT1080 cells at 3 uM after 48 hrs by MTT assay; type: functional; settings: HT-1080, 48 h
HT-1080 [19] = assay: Antiproliferative activity against human HT1080 cells at 10 uM after 48 hrs by calcein-AM assay; type: functional; settings: HT-1080, 48 h
HT-1080 [20] = assay: Antiproliferative activity against human HT1080 cells at 10 uM after 24 hrs by calcein-AM assay; type: functional; settings: HT-1080, 24 h
HT-1080 [21] = assay: Antiproliferative activity against human HT1080 cells at 3 uM after 72 hrs by MTT assay; type: functional; settings: HT-1080, 72 h
HT-1080 [22] = assay: Antiproliferative activity against human HT1080 cells at 30 uM after 72 hrs by MTT assay; type: functional; settings: HT-1080, 72 h
HT-1080 [23] = assay: Antiproliferative activity against human HT1080 cells at 3 uM after 72 hrs by calcein-AM assay; type: functional; settings: HT-1080, 72 h
HT-1080 [24] = assay: Inhibition of invasion of human HT1080 cells at 3 uM after 24 hrs; type: functional; settings: HT-1080, 24 h
HL-60 [25] = assay: […] human HL60 cells assessed NBT positive cells at 30 uM after 72 hrs by NBT reduction test; type: functional
HL-60 [26] = assay: Induction of human HL60 cells differentiation assessed as number of cells at 10 uM after 72 hrs by NBT reduction test; type: functional
HT-1080 [27] = assay: Antiproliferative activity against human HT1080 cells at 30 uM after 24 hrs by calcein-AM assay; type: functional; settings: HT-1080, 24 h
HT-1080 [28] = assay: Antiproliferative activity against human HT1080 cells at 30 uM after 48 hrs by calcein-AM assay; type: functional; settings: HT-1080, 48 h
HL-60 [29] = assay: Induction of human HL60 cells differentiation assessed as number of cells at 0.01 uM after 72 hrs by NBT reduction test; type: functional
HL-60 [30] = assay: Induction of human HL60 cells differentiation assessed as number of cells at 0.02 uM after 72 hrs by NBT reduction test; type: functional
HL-60 [31] = assay: […] human HL60 cells assessed NBT positive cells at 0.02 uM after 72 hrs by NBT reduction test; type: functional
HL-60 [32] = assay: […] human HL60 cells assessed NBT positive cells at 0.01 uM after 72 hrs by NBT reduction test; type: functional
HT-1080 [33] = assay: Antiproliferative activity against human HT1080 cells at 1 uM after 24 hrs by MTT assay; type: functional; settings: HT-1080, 24 h
HT-1080 [34] = assay: Antiproliferative activity against human HT1080 cells at 1 uM after 48 hrs by MTT assay; type: functional; settings: HT-1080, 48 h
HT-1080 [35] = assay: Antiproliferative activity against human HT1080 cells at 1 uM after 48 hrs by calcein-AM assay; type: functional; settings: HT-1080, 48 h
HT-1080 [36] = assay: Antiproliferative activity against human HT1080 cells at 1 uM after 72 hrs by calcein-AM assay; type: functional; settings: HT-1080, 72 h
HT-1080 [37] = assay: Antiproliferative activity against human HT1080 cells at 1 uM after 72 hrs by MTT assay; type: functional; settings: HT-1080, 72 h
HT-1080 [38] = assay: Inhibition of proMMP2 production in human HT1080 cells by gelatin zymography analysis; type: functional, cell-based
HT-1080 [39] = assay: Antiproliferative activity against human HT1080 cells at 1 uM after 24 hrs by calcein-AM assay; type: functional; settings: HT-1080, 24 h
HT-1080 [40] = assay: Inhibition of invasion of human HT1080 cells at 1 uM after 24 hrs; type: functional; settings: HT-1080, 24 h
HT-1080 [41] = assay: Inhibition of proMMP9 production in human HT1080 cells by gelatin zymography analysis; type: functional, cell-based

Row | SMILES | inhibition at 3 µM (HT-1080 [1]) | inhibition at 30 µM (HT-1080 [2]) | IC50 (U-937 [3]) | IC50 (U-937 [4]) | inhibition at 10 µM (HT-1080 [5]) | inhibition at 30 µM (HT-1080 [6]) | inhibition at 30 µM (HT-1080 [7]) | inhibition at 3 µM (HT-1080 [8]) | Activity (HL-60 [9]) | inhibition at 10 µM (HT-1080 [10]) | inhibition at 10 µM (HT-1080 [11]) | inhibition at 30 µM (HT-1080 [12]) | inhibition at 3 µM (HT-1080 [13]) | IC50 (U-937 [14]) | inhibition at 10 µM (HT-1080 [15]) | inhibition at 10 µM (HT-1080 [16]) | Activity (HL-60 [17]) | inhibition at 3 µM (HT-1080 [18]) | inhibition at 10 µM (HT-1080 [19]) | inhibition at 10 µM (HT-1080 [20]) | further results
1 | O=c1c(-c2ccc(O)cc2)coc2cc(O)cc(O)c12 [GENISTEIN] | 2% | 25.3% | 72 µM | 48 µM | 35.1% | 43.2% | 17.2% | -6.2% | 4.1% | 6% | -1.2% | 12.5% | 2.8% | > 100 µM | 1.7% | 9.3% | 5.3 10^5/ml | 3.8% | 5.1% | 6.1% | inhibition at 3 µM (HT-1080 [21]): -0.9%; inhibition at 30 µM (HT-1080 [22]): 22.5%; inhibition at 3 µM (HT-1080 [23]): 1.5%; inhibition at 3 µM (HT-1080 [24]): 5.5%; Activity (HL-60 [25]): 11.2%; Activity (HL-60 [26]): 8.3 10^5/ml; inhibition at 30 µM (HT-1080 [27]): 17.3%; inhibition at 30 µM (HT-1080 [28]): 17.6%
2 | C=C1/C(=C\C=C2/CCC[C@]3(C)[C@@H]([C@H](C)CCCC(C)(C)O)CC[C@@H]23)C[C@@H](O)C[C@@H]1O [CALCITRIOL] |  |  |  |  |  |  |  |  |  |  |  |  |  |  |  |  |  |  |  |  | Activity (HL-60 [29]): 8 10^5/ml; Activity (HL-60 [30]): 6.8 10^5/ml; Activity (HL-60 [31]): 27.9%; Activity (HL-60 [32]): 15.6%
3 | COc1cc2c(cc1OC)[C@@H]1C(=O)c3ccc4c(c3O[C@@H]1CO2)C=CC(C)(C)O4 [DEGUELIN] | 44.2% | 97.3% | 16 µM | 5.8 µM | 58% | 57.9% | 98.5% | 8.6% | 12.5% | 98.5% | 10.7% | 10.9% | -0.9% | 42 µM | 98.8% | 97.7% | 0.3 10^5/ml | 96.5% | 51% | -1.8% | inhibition at 1 µM (HT-1080 [33]): 6.3%; inhibition at 1 µM (HT-1080 [34]): 78.3%; inhibition at 1 µM (HT-1080 [35]): 35.2%; inhibition at 1 µM (HT-1080 [36]): 95.3%; inhibition at 1 µM (HT-1080 [37]): 98.2%; inhibition at 3 µM (HT-1080 [21]): 98.7%; inhibition at 30 µM (HT-1080 [22]): 98.9%; inhibition at 3 µM (HT-1080 [23]): 98.5%; Activity (HT-1080 [38]): Active; inhibition at 3 µM (HT-1080 [24]): 50.2%; Activity (HL-60 [25]): 22.2%; inhibition at 1 µM (HT-1080 [39]): 10.5%; inhibition at 1 µM (HT-1080 [40]): 38%; Activity (HL-60 [26]): 2.1 10^5/ml; inhibition at 30 µM (HT-1080 [27]): 17%; Activity (HT-1080 [41]): Active; inhibition at 30 µM (HT-1080 [28]): 40.4%
4 | COc1cc2c(cc1OC)[C@]1(O)C(=O)c3ccc4c(c3O[C@@H]1CO2)C=CC(C)(C)O4 [TEPHROSIN] | 63% | 98% | 23 µM | 7.3 µM | 49.2% | 67.6% | 98.3% | 0.8% | 5.9% | 98.2% | 2% | 3.8% | 7% | 30 µM | 98.9% | 98.1% | 1 10^5/ml | 97.9% | 67.7% | 5.9% | inhibition at 1 µM (HT-1080 [33]): -1.9%; inhibition at 1 µM (HT-1080 [34]): 96.4%; inhibition at 1 µM (HT-1080 [35]): 54%; inhibition at 1 µM (HT-1080 [36]): 97.8%; inhibition at 1 µM (HT-1080 [37]): 98.7%; inhibition at 3 µM (HT-1080 [21]): 98.7%; inhibition at 30 µM (HT-1080 [22]): 98.6%; inhibition at 3 µM (HT-1080 [23]): 97.9%; Activity (HT-1080 [38]): Active; inhibition at 3 µM (HT-1080 [24]): 29.6%; Activity (HL-60 [25]): 8.4%; inhibition at 1 µM (HT-1080 [39]): 5%; inhibition at 1 µM (HT-1080 [40]): -9.3%; Activity (HL-60 [26]): 4.5 10^5/ml; inhibition at 30 µM (HT-1080 [27]): 13.7%; Activity (HT-1080 [41]): Active; inhibition at 30 µM (HT-1080 [28]): 83.2%
